We go through 19 molecules from patent US4820715A, “Anti-emetic quinuclidinyl benzamides” (Bristol-Myers Company, priority 1987, dated 1989).

The structures appear in SMILES notation. pEC50, pIC50: −log10 of the molar value. Where a name gives a salt, the structure may show the parent alone.

One experiment concerns Cisplatin-Induced Emesis. Nature of the experiment: Antagonism of Cisplatin-Induced Emesis in the Ferret. The format is in vivo, Fitch ferrets. As to conditions: Mustela putorius, iv, 4 h, i.v. × 2, read-out: Antagonism of Cisplatin-Induced Emesis in the Ferret, % Protection. From the text:
The ventral and dorsal area of the neck is shaved and a 3 cm incision is made. The left jugular vein is exposed and ligated with a silk suture at the cephalic end. The indwelling catheter is constructed of Silastic tubing 18 cm in length (0.020 inch I.D.×0.037 inch O.D.) with a 2 cm polyethylene sleeve (0.045 inch I.D.×0.062 inch O.D.) filled with heparin (1000 units/ml) and sealed at the exposed end with a 23 gauge×1 inch needle crimped at both ends. A small cut is made in the jugular and the catheter inserted, allowing the free end to be delivered through a 13 gauge×5 cm trochar under the skin and attached to the nape of the neck with a silk suture. The ferrets are housed in individual cages and allowed 2-4 days recovery before testing. On the test day, the test compounds were administered i.v. […] The cisplatin solution was prepared by adding 70° C. physiological saline, stirring and sonicating until dissolved. The resulting solution (4 mg/ml) was maintained at 40° C. and administered i.v. ([…]) via the catheter. Following administration of cisplatin, the ferrets were observed continuously for four hours and emetic episodes recorded. Two or more emetic episodes within a one-minutes period was considered as a single episode. The ferrets were euthanized with T-61 i.v. at the termination of the experiment, and proper placement of the catheter was verified.

The target of experiment [1] is dopaminergic (D2) receptors (Rattus norvegicus, UniProt P61169). The experiment is described as follows: biochemical. The format is binding. Particulars: striatal rat brain homogenates, ^3H-spiperone, 37° C., 15 minutes; read-out: 3H-Spiperone Displacement IC50. The method, then:
Rats (150±10 g; Charles River) were decapitated, the corpus striatum dissected out and frozen on dry ice. The tissues were pooled and stored at -80° C. until used. Homogenates (Brinkmann Polytron) of the corpus striatum in cold HEPES.KOH buffer (final pH=7.4) were centrifuged at 39,000×G. The supernatant was discarded and the pellets were re-suspended in HEPES.KOH buffer and re-centrifuged as above.
Tests to determine the Inhibitory Concentration50 (IC50) of the compounds of Formula I and reference compounds versus ^3 H-spiperone were conducted as follows. Tubes containing either 100 μL of buffer mixture (for total binding), 100 μL of buffer mixture plus 100 μL of 10^-4 M D(+)-butaclamol (for blanks, i.e. non-specific binding), or 100 μL of buffer mixture containing 10^-7, 10^-6 or 10^-5 M test compound were prepared. To each were added 100 μL of a solution of ^3 H-spiperone (New England Nuclear) in buffer mixture (2000 c.p.m. in the incubation mixture) and 800 μL of the striatal tissue suspension. The tubes were then diluted to 1 mL with buffer mixture, giving a final concentration of 10^-8, 10^-7 or 10^-6 M test compound and approximately 100 pM ^3 H-spiperone. The samples were incubated at 37° C. for 15 minutes, filtered in vacuo on glass fiber filters and counted by liquid scintillation spectrometry. […] All samples were run in duplicate.

For experiment [2], the system named is Apomorphine-Induced Emesis. The experiment is described as follows: Antagonism of Apomorphine-Induced Emesis in Dogs. The format is in vivo, beagle dogs. Particulars: Canis lupus familiaris, sc; s.c. 30 minutes prior to apomorphine 0.3 mg/kg; dog; read-out: Antagonism of Apomorphine-Induced Emesis in the Dog ED50. The procedure:
Unfasted beagle dogs of both sexes were used as test subjects. Test compounds and apomorphine were each administered subcutaneously as aqueous solutions, with the test compound being administered 30 minutes prior to the administration of the apormorphine.
Apomorphine was administered at a dose of 0.3 mg/kg. […] All tests were run in at least two dogs.

Experiment [3] concerns field-stimulated guinea pig ileum. Nature of the experiment: Gastrokinetic Activity: contraction of field-stimulated guinea pig ileum preparations. Set-up: species or system guinea pig (Hartley). As to conditions: Cavia porcellus; for EC30: effective concentration30, read-out: EC30 (95% C.L.); for pEC50: effective concentration50, read-out: EC50 (95% C.L.); for minimal effective concentration: read-out: Minimum Effective Concentration. The procedure:
This activity is considered to be correlated with gastrokinetic (prokinetic) activity in vivo, i.e. enhancement of gastric motility and gastric emptying.
Normal, male guinea pigs (Hartley; Charles River) weighing […] are sacrificed by cervical dislocation. The terminal portion of the ileum was removed after discarding a 10 cm segment nearest to the ileocecal junction. The strips, 3-4 cm in length, were mounted in a 20 ml organ bath containing Krebs physiological buffer solution. The buffer was bubbled with 95% O2 -5% CO2 and kept at 37° C. The resting tension was adjusted to 1.0 g, and the tissues were equilibrated without stimulation for 15 minutes. For electrical stimulation, a platinum wire (cathode) was threaded up through the lumen and another platinum wire (anode) was attached to the glass rod that suspended the muscle. Tissues were stimulated coaxially at 1.5 times the voltage necessary to produce maximum twitch height, with single pulses, 0.5 msec in duration, delivered once every 10 seconds. After the 15 minute equilibration period (without stimulation), the stimulator (Grass S88 Stimulator) was turned on and the tissues were allowed to stabilize for approximately 1 hour, or until the twitch height remained constant, with washes every 20 minutes.

Setting [4] is: read-out: Average % Maximum Increase.

Chain of dopaminergic (D2) receptors (P61169 whole entry): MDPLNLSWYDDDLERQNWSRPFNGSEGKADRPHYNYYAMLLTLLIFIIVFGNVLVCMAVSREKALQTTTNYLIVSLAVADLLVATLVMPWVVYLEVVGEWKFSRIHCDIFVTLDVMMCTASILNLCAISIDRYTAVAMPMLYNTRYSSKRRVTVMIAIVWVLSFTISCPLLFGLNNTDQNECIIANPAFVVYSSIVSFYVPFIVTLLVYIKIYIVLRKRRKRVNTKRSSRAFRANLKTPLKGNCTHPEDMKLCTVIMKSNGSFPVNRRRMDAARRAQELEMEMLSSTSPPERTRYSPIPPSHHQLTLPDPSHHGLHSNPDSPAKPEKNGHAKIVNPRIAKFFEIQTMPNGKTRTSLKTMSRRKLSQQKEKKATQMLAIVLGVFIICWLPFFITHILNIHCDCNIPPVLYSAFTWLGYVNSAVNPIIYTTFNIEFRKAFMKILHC

As for `CCOC(=O)C(Oc1cc(N)c(Cl)cc1C(=O)NCCN(CC)CC)c1ccccc1` (stereo not drawn) [Example 35, α-{3-Amino-4-chloro-6-[N-(2-[diethylamino]ethyl)]carbomoylphenoxy}phenylacetic acid, ethyl ester], the inhibition in vivo at 3 mg/kg with Cisplatin-Induced Emesis is 72%. Moreover, the pIC50 (in general, the IC50 on a negative log10 scale, so that one unit is a factor of ten) in experiment [1] was less than 6.00. Besides, the ED50 (as a rule, the dose that gives a 50% effect, or the effect in half of the subjects) in experiment [2] was more than 3 mg/kg.
For `CO[C@@H]1CN(CCCOc2ccc(F)cc2)CC[C@@H]1NC(=O)c1cc(Cl)c(N)cc1OCC(N)=O` (relative stereo) [Example 62, Cis-4-amino-2-(2-amino-2-oxoethoxy)-5-chloro-N-{1-[3-(4-fluorophenoxy)propyl]-3-methoxy-4-piperidinyl}benzamide sesquihydrate], in that order: 71%, less than 6.00 and more than 3 mg/kg.
Turning to `CCN(CC)CCNC(=O)c1cc(Cl)c(N)cc1OCC1CNC(=O)O1` (stereo not shown) [Example 44, 4-Amino-5-chloro-N[2-(diethylamino)ethyl]-2-(oxazolidin)-2-one-5-ylmethyl)oxybenzamide Fumarate], in the experiment on Cisplatin-Induced Emesis, the inhibition in vivo at 3 mg/kg stood at 71%. Also, in experiment [1], the negative-log IC50 (pIC50) is less than 6.00. Moreover, the ED50 in experiment [2] is more than 3 mg/kg.
Consider `CCN(CC)CCNC(=O)c1cc(Cl)c(N)cc1OCc1cc(C)no1` [Example 19, 4-Amino-5-chloro-N-[2-(diethylamino)ethyl]-2-(3-methylisoxazol-5-yl)methoxybenzamide], for which the activation at 3 µM in experiment [3] (at 3 μM, read-out: Average % Maximum Increase) came to 39%. Besides, in experiment [3], the EC30 (usually the concentration at which the effect reaches the 30% level) is 1.7 µM; the pEC50 (usually the EC50 on a negative log10 scale, so that one unit is a factor of ten) is 5.23; the minimal effective concentration came out at 0.1 µM. For the same molecule, in the experiment with Cisplatin-Induced Emesis, the inhibition in vivo at 3 mg/kg came to 72%. The ED50 in experiment [2] is more than 3 mg/kg.
For `CCN(CC)CCNC(=O)c1cc(Cl)c(N)cc1OCCN` [Example 47, 4-Amino-2-(2-aminoethoxy)-5-chloro-N-[2-(diethylamino)ethyl]benzamide], the inhibition in vivo at 3 mg/kg in the experiment on Cisplatin-Induced Emesis is 8%. The pIC50 in experiment [1] is less than 6.00. For the same molecule, the ED50 in experiment [2] is more than 3 mg/kg.
Regarding `CCN(CC)CCNC(=O)c1cc(Cl)c(N)cc1OC` [Metoclopramide, reference compound], the activation at 30 µM in experiment [3] (setting [4]) stood at 62%. In experiment [3], the EC30 was 1.6 µM, the pEC50 was 4.96 and the minimal effective concentration came to 0.03 µM. For the same molecule, the inhibition in vivo at 3 mg/kg in the experiment with Cisplatin-Induced Emesis came to 89%. Besides, the ED50 in experiment [2] came out at 0.5 mg/kg.
On to `CCN(CC)CCNC(=O)c1cc(Cl)c(N)cc1OCCSC` [Example 20, 4-Amino-5-chloro-N-[2-(diethylamino)ethyl]-2-[2-(methylthio)ethoxy]benzamide], for which the inhibition in vivo at 3 mg/kg in the experiment on Cisplatin-Induced Emesis stood at 50%. For the same molecule, in experiment [1], the pIC50 was less than 6.00. In experiment [2], the ED50 was more than 3 mg/kg.
For `COc1cc(N)c(Cl)cc1C(=O)NC1CCN(Cc2ccccc2)CC1` [Clebopride, reference compound], in that order: 70%, 7.96 and 0.04 mg/kg.
On to `CC(=O)C(C)Oc1cc(N)c(Cl)cc1C(=O)NCCN(C)C` (stereo not shown) [Example 32, 4-Amino-2-(2-butanon-3-yl)oxy-5-chloro-N-[2-(dimethylamino)ethyl]benzamide], for which the inhibition in vivo at 1 mg/kg in the experiment with Cisplatin-Induced Emesis came to 72%. Also, in experiment [1], the pIC50 is less than 6.00. Also, the ED50 in experiment [2] was more than 3 mg/kg.
As for `CCN(CC)CCNC(=O)c1cc(Cl)c(N)cc1OCCCl` [Example 53, 4-Amino-5-chloro-2-(2-chloroethoxy)-N-[2-(2-diethylamino)ethyl]benzamide], the inhibition in vivo at 3 mg/kg with Cisplatin-Induced Emesis was found to be 91%. The pIC50 in experiment [1] was less than 6.00. Moreover, the ED50 in experiment [2] was more than 3 mg/kg.
For `CCN(CC)CCNC(=O)c1cc(Cl)c(N)cc1OCC(=O)N(C)C` [Example 55], the inhibition in vivo at 3 mg/kg in the experiment on Cisplatin-Induced Emesis is 66%. Moreover, in experiment [1], the pIC50 is less than 6.00. For the same molecule, in experiment [2], the ED50 was more than 3 mg/kg.
Consider `CCN(CC)CCNC(=O)c1cc(Cl)c(N)cc1OCCCSC` [Example 49, 4-Amino-5-chloro-N-[2-(diethylamino)ethyl]-2-[3-(methylthio)propoxy]benzamide], for which the inhibition in vivo at 3 mg/kg in the experiment on Cisplatin-Induced Emesis worked out at 62%. Further, in experiment [1], the pIC50 was less than 6.00. Besides, in experiment [2], the ED50 was more than 3 mg/kg.
As for `C=CCN1CCCC1CNC(=O)c1cc2[nH]nnc2cc1OC` (stereo not shown) [Alizapride, reference compound], the inhibition in vivo at 3 mg/kg in the experiment with Cisplatin-Induced Emesis is 27%. The pIC50 in experiment [1] was 6.54. In addition, the ED50 in experiment [2] worked out at 0.3 mg/kg.
Turning to `CCN(CC)CCNC(=O)c1cc(Cl)c(N)cc1OC(C)C(C)=NO` (stereo not shown) [Example 34, 4-Amino-5-chloro-N-[2-(diethylamino)ethyl]-2-(2-hydroxyiminobut-3-yl)oxybenzamide], the inhibition in vivo at 1 mg/kg in the experiment with Cisplatin-Induced Emesis was found to be 54%. The negative logarithm of the IC50 (pIC50) in experiment [1] was less than 6.00. Moreover, the ED50 in experiment [2] was more than 3 mg/kg.
Turning to `CO[C@@H]1CN(CCCOc2ccc(F)cc2)CC[C@@H]1NC(=O)c1cc(Cl)c(N)cc1OCCSC.O` (relative stereo) [Example 61, Cis-4-amino-5-chloro-N-{1-[3-(4-fluorophenoxy)propyl]-3-methoxy-4-piperidinyl}-2-[2-(methylthio)ethoxy]benzamide monohydrate], in the experiment with Cisplatin-Induced Emesis, the inhibition in vivo at 3 mg/kg turned out to be 71%. Besides, the pIC50 in experiment [1] was 6.12. Also, in experiment [2], the ED50 is more than 3 mg/kg.
In the case of `CCN(CC)CCNC(=O)c1cc(Cl)c(N)cc1OCC1=NCCN1` [Example 51, 4-Amino-5-chloro-N-[2-(diethylamino)ethyl]-2-(1H-4,5-dihydroimidazol-2-yl)methoxybenzamide], in experiment [3] (at 10 μM, read-out: Average % Maximum Increase), the activation at 10 µM is 51%. Moreover, in experiment [3], the EC30 is 0.23 µM, the pEC50 is 5.30 and the minimal effective concentration amounted to 0.03 µM. The inhibition in vivo at 3 mg/kg in the experiment with Cisplatin-Induced Emesis came to 71%. In addition, the ED50 in experiment [2] was more than 3 mg/kg.
As for `CCN(CC)CCNC(=O)c1cc(Cl)c(N)cc1OC(C)C#N` (stereo not shown) [Example 14, 4-Amino-5-chloro-[2-(diethylamino)ethyl]-2-(1-cyano)ethoxybenzamide], the activation at 30 µM in experiment [3] (setting [4]) amounted to 55%. Further, in experiment [3], the EC30 was 4.3 µM, the pEC50 was 4.74 and the minimal effective concentration is 0.1 µM. For the same molecule, the inhibition in vivo at 3 mg/kg in the experiment with Cisplatin-Induced Emesis stood at 62%. Moreover, in experiment [2], the ED50 is more than 3 mg/kg.
`CCN(CC)CCNC(=O)c1cc(Cl)c(N)cc1OCCC1(C)OCCO1` [Example 54]: the inhibition in vivo at 3 mg/kg in the experiment with Cisplatin-Induced Emesis came out at 81%. For the same molecule, in experiment [2], the ED50 was more than 3 mg/kg.
Consider `CCC(Oc1cc(N)c(Cl)cc1C(=O)NCCN(CC)CC)C(C)=O` (stereo not shown) [Example 25, 4-Amino-5-chloro-N-[2-(diethylamino)ethyl]-2-(pentan-2-on-3-yl)oxybenzamide], for which, in the experiment on Cisplatin-Induced Emesis, the inhibition in vivo at 1 mg/kg came to 58%. The ED50 in experiment [2] is more than 3 mg/kg.
